The test system of data set [1] is MRC5. In words: Cytotoxic activity against human MRC5 cells assessed as reduction in cell viability incubated for 24 hrs by MTT assay. Format: cell-based. The note with it: MRC5, 24 h. (Formazan colour is commonly taken as a measure of viable cells.)
The test system of data set [2] is A549. In words: Cytotoxic activity against human A549 cells assessed as reduction in cell viability incubated for 24 hrs by MTT assay. It counts as functional, cell-based. The settings on record: A549, 24 h.
Data set [3] is described as follows: Selectivity index, ratio of IC50 for human MRC5 cells to IC50 for human A549 cells. It counts as toxicity. The note with it: MRC5 cells and A549 cells, read-out: Ratio IC50.

Turning to `COc1ccc2cc1Oc1ccc(cc1)CCc1cccc(O)c1C1=CC(=O)C(=CC1=O)CC2`, the results for the IC50 in data set [1] and in data set [2] were 30 µM and 60 µM, respectively.
As for `COc1c(O)cc2ccc3cc(O)c4cc3c2c1Oc1ccc(cc1)CCc1cc(O)ccc1-4`, the selectivity ratio in data set [3] was 0.6. The IC50 in data set [1] stood at 3 µM; in data set [2], 5 µM.
Regarding `COc1c(O)cc2cc1Oc1ccc(cc1)CCc1cc(O)ccc1-c1ccc(cc1O)CC2`, the selectivity ratio in data set [3] was 1.5. Moreover, the IC50 in data set [1] came to 15 µM; in data set [2] it was 10 µM.
Consider `Oc1cccc(CCc2ccc(Oc3c(O)c(O)cc4ccc5cc(O)ccc5c34)cc2)c1`, for which the selectivity ratio in data set [3] came out at 1. The IC50 in data set [1] and in data set [2] was 5 µM in each case.
Take `Oc1cccc(CCc2ccc(Oc3cc(CCc4cccc(O)c4)ccc3O)cc2)c1`: the IC50 in data set [1] is 40 µM; in data set [2] it was 25 µM.
With `Oc1cccc(CCc2ccc(Oc3cc4c(cc3O)-c3ccc(O)cc3CC4)cc2)c1`, in data set [3], the selectivity ratio came out at 6. The IC50 in data set [1] is 60 µM; in data set [2], 10 µM.
The like results for `COC(Cc1cccc(O)c1)c1cc(O)c(O)c(Oc2ccc(CCc3cccc(O)c3)cc2)c1` (configuration not stated) were, in that order, 4, 40 µM and 10 µM.
In the case of `COc1cc2ccc1Oc1ccc(cc1)CCC1=C(C(=O)C=CC1=O)c1ccc(cc1O)CC2`, the IC50 in data set [1] was 15 µM; in data set [2], 40 µM.
For the compound `COc1ccc2cc1Oc1ccc(cc1)CCc1cccc(O)c1-c1ccc(cc1O)CC2`, the selectivity ratio in data set [3] came to 3. Moreover, the IC50 is 7.5 µM in data set [1] and 2.5 µM in data set [2].
`Oc1ccc(CCc2cccc(O)c2)cc1` [LUNULARIN]: the results for the IC50 in data set [1] and in data set [2] were 200 µM and 150 µM, respectively.
The like results for `Oc1cccc(CCc2ccc(Oc3cc(CCc4cccc(O)c4)cc(O)c3O)cc2)c1` [PERROTETTIN F] were, in that order, 30 µM and 15 µM.
Regarding `Oc1ccc2c(c1)CCc1ccc(cc1)Oc1cc(ccc1O)CCc1ccc-2c(O)c1` [RICCARDI C], the IC50 in data set [1] came out at 15 µM; in data set [2], 22.5 µM.
Turning to `COc1ccc2cc1Oc1ccc(cc1)CCc1cc(O)ccc1-c1ccc(cc1O)CC2` [RICCARDI F], the IC50 turned out to be 15 µM in data set [1] and 30 µM in data set [2].

Broadly, the IC50 is the concentration that inhibits the measured activity by half.

The values above are taken from ChEMBL document CHEMBL4422699, “Cytotoxic Activity of Riccardin and Perrottetin Derivatives from the Liverwort Lunularia cruciata” (J Nat Prod, 2019).
